# From the supplement of paper PMC10627819
# How the values were obtained:
# Experiment in all cases: Bliss interaction score (quartile over a dose matrix) (fitness difference); higher = more antagonism (negative = synergy)
# B. subtilis 168 = tested on: B. subtilis 168
# Procedure, shortened: (§1)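 Fitness was defined as normalised growth: OD595 at the start of stationary phase divided by the plate's robust no-drug mean and capped at 1. Single-drug fitness was inferred from combination measurements. The Bliss score is observed fitness minus the product of the single-drug values, summarised by quartiles across technical, biological and donor/recipient replicates.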
# S. aureus DSM 20231 = tested on: S. aureus DSM 20231
# Procedure, shortened: as §1
# S. aureus Newman = tested on: S. aureus Newman
# Procedure, shortened: as §1
# S. pneumoniae D39V = tested on: S. pneumoniae D39V
# Procedure, shortened: as §1
# 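Also: first quartile when negative (synergy) and third quartile when positive (antagonism).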
Structure (SMILES),Bliss interaction score (B. subtilis 168),Bliss interaction score (S. aureus DSM 20231),Bliss interaction score (S. aureus Newman),Bliss interaction score (S. pneumoniae D39V)
C[C@H]1c2cccc(O)c2C(=O)C2=C(O)[C@]3(O)C(=O)C(C(N)=O)=C(O)[C@@H](N(C)C)[C@@H]3[C@@H](O)[C@@H]21 [Doxycycline] + CC[C@H]1OC(=O)[C@H](C)[C@@H](O[C@H]2C[C@@](C)(OC)[C@@H](O)[C@H](C)O2)[C@H](C)[C@@H](O[C@@H]2O[C@H](C)C[C@H](N(C)C)[C@H]2O)[C@](C)(O)C[C@@H](C)C(=O)[C@H](C)[C@@H](O)[C@]1(C)O [Erythromycin],-0.162,-0.0389,-0.0251,-0.161
CN(C)[C@@H]1C(O)=C(C(N)=O)C(=O)[C@@]2(O)C(O)=C3C(=O)c4c(O)ccc(Cl)c4[C@@](C)(O)[C@H]3C[C@@H]12 [Clortetracycline] + CC[C@H]1OC(=O)[C@H](C)C(=O)[C@H](C)[C@@H](O[C@@H]2O[C@H](C)C[C@H](N(C)C)[C@H]2O)[C@](C)(OC)C[C@@H](C)C(=O)[C@H](C)[C@H]2N(CCCCn3cnc(-c4cccnc4)c3)C(=O)O[C@]12C [Telithromycin],-0.372,-0.0731,-0.101,-0.0824
N#CC(C#N)=NNc1cccc(Cl)c1 [CCCP] + O=C(O)c1cn(C2CC2)c2cc(N3CCNCC3)c(F)cc2c1=O [Ciprofloxacin],-0.0456,-0.0358,-0.0497,0.0549
N#CC(C#N)=NNc1cccc(Cl)c1 [CCCP] + CO[C@H]1/C=C/O[C@@]2(C)Oc3c(C)c(O)c4c(O)c(c(/C=N/N5CCN(C)CC5)c(O)c4c3C2=O)NC(=O)/C(C)=C\C=C\[C@H](C)[C@H](O)[C@@H](C)[C@@H](O)[C@@H](C)[C@H](OC(C)=O)[C@@H]1C [Rifampicin],-0.0783,0.0329,0.0395,0.0879
CC(=O)Oc1ccccc1C(=O)O [Acetylsalicylicacid] + Cc1cc(NS(=O)(=O)c2ccc(N)cc2)no1 [Sulfamethoxazol],0.0808,-0.0892,-0.0624,-0.0493
CC(=O)Oc1ccccc1C(=O)O [Acetylsalicylicacid] + Clc1ccc(COC(Cn2ccnc2)c2ccc(Cl)cc2Cl)c(Cl)c1 [Miconazole],0.0955,0.0658,0.0722,-0.0711
CC(=O)Oc1ccccc1C(=O)O [Acetylsalicylicacid] + C[n+]1ccc(-c2cc[n+](C)cc2)cc1 [Paraquat],0.067,0.067,0.0558,-0.0664
CO/N=C(\C(=O)N[C@@H]1C(=O)N2C(C(=O)O)=C(COC(C)=O)CS[C@H]12)c1csc(N)n1 [Cefotaxime] + Oc1cc(Cl)ccc1Oc1ccc(Cl)cc1Cl [Triclosan],0.0558,0.0696,0.033,-0.0421
N#CC(C#N)=NNc1cccc(Cl)c1 [CCCP] + CC(=O)NC[C@H]1CN(c2ccc(N3CCOCC3)c(F)c2)C(=O)O1 [Linezolid],0.0322,-0.0274,0.0931,0.0853
CC1(C)S[C@@H]2[C@H](NC(=O)Cc3ccccc3)C(=O)N2[C@H]1C(=O)O [PenicillinG] + CN(C)c1cc(NC(=O)CNC(C)(C)C)c(O)c2c1C[C@H]1C[C@H]3[C@H](N(C)C)C(O)=C(C(N)=O)C(=O)[C@@]3(O)C(O)=C1C2=O [Tigecycline],0.0408,-0.0277,0.0515,-0.103
N#CC(C#N)=NNc1cccc(Cl)c1 [CCCP] + CN[C@@H]1[C@H](O[C@H]2[C@H](O[C@H]3[C@H](O)[C@@H](O)[C@H](N=C(N)N)[C@@H](O)[C@@H]3N=C(N)N)O[C@@H](C)[C@]2(O)C=O)O[C@@H](CO)[C@H](O)[C@H]1O [Streptomycin],0.48,0.0501,0.0563,0.0786
CC(=O)Oc1ccccc1C(=O)O [Acetylsalicylicacid] + CC[C@H]1OC(=O)[C@H](C)[C@@H](O[C@H]2C[C@@](C)(OC)[C@@H](O)[C@H](C)O2)[C@H](C)[C@@H](O[C@@H]2O[C@H](C)C[C@H](N(C)C)[C@H]2O)[C@](C)(OC)C[C@@H](C)C(=O)[C@H](C)[C@@H](O)[C@]1(C)O [Clarithromycin],0.322,0.109,0.151,0.0695
CC(=O)Oc1ccccc1C(=O)O [Acetylsalicylicacid] + CN(N=O)C(=O)N[C@@H](C=O)[C@@H](O)[C@H](O)[C@H](O)CO [Streptozotocin],0.0788,-0.0369,0.0716,-0.0923
Cc1ncc([N+](=O)[O-])n1CCO [Metronidazole] + CC1(C)S[C@@H]2[C@H](NC(=O)Cc3ccccc3)C(=O)N2[C@H]1C(=O)O [PenicillinG],0.0322,0.0819,0.0592,0.114
N#CC(C#N)=NNc1cccc(Cl)c1 [CCCP] + CN[C@@H]1[C@H](O)[C@H](NC)[C@H]2O[C@@]3(O)C(=O)C[C@@H](C)O[C@H]3O[C@@H]2[C@H]1O [Spectinomycin],0.0317,0.0771,-0.0505,0.0475
CC(=O)Oc1ccccc1C(=O)O [Acetylsalicylicacid] + CC[C@H]1OC(=O)[C@H](C)[C@@H](O[C@H]2C[C@@](C)(OC)[C@@H](O)[C@H](C)O2)[C@H](C)[C@@H](O[C@@H]2O[C@H](C)C[C@H](N(C)C)[C@H]2O)[C@](C)(O)C[C@@H](C)CN(C)[C@H](C)[C@@H](O)[C@]1(C)O [Azithromycin],0.153,0.179,0.105,0.0486
CC(=O)Oc1ccccc1C(=O)O [Acetylsalicylicacid] + CCN(CC)CCOC(=O)c1ccc(N)cc1 [Procaine],0.0531,0.0998,-0.0687,0.0662
